Values joined by “and” are separate entries in the source; they are usually repeats but may differ in a detail not shown here. Equal entries are not always repeated.
Key:
Assay type in all cases: cell-based
FKBP12^WT-Nluc = target: T1, FKBP12^WT-Nluc (Homo sapiens, UniProt P62942); experiment: FKBP12WT-Nluc dual luciferase assay (293FT); conditions: 293FT FKBP12WT-Nluc, 24 h
T1 construct: expressed in transfected cells; host or cells: 293FT
Description: (§1) Dual luciferase assays were performed using 293FT FKBP12^WT-Nluc and FKBP12^F36V-Nluc cells. In brief, cells were plated at 2000 cells per well in 20 µL of appropriate media in 384-well white culture plates (Corning), allowed to adhere overnight, and 100 nL of compounds were added using a Janus Workstation pin tool (PerkinElmer) for 24 h at 37 °C. To evaluate Fluc signal, plates were brought to room temperature, 20 µL of Dual-Glo Reagent (Promega) was added for 10 min and luminescence was measured on an Envision 2104 plate reader (PerkinElmer). Subsequently, 20 µL of Dual-Glo Stop & Glo Reagent (Promega) was added for 10 min and luminescence was again measured to capture Nluc signal. DMSO-normalized ratios of Nluc/Fluc signal was analyzed and plotted using GraphPad PRISM v8[6].

FKBP12^F36V-Nluc = target: T2, FKBP12^F36V-Nluc (Homo sapiens, UniProt P62942, F37V); experiment: FKBP12F36V-Nluc dual luciferase assay (293FT); conditions: 293FT FKBP12F36V-Nluc, 24 h
T2 construct: expressed in transfected cells; host or cells: 293FT
T2 sequence (P62942 2-108 F37V limits assumed): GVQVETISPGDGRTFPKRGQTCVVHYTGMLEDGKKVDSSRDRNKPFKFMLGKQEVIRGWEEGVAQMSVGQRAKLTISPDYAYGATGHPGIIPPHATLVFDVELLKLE
Description: as §1

[1] = system: PATU-8902 LACZ-FKBP12^F36V clone; experiment: Antiproliferation, PATU-8902 LACZ-FKBP12F36V clone, 3D-spheroid (CellTiter-Glo)
Description: (§2) Cell viability was assayed in 2D-adherent or ultra-low adherent 3D-spheroids using CellTiter-Glo (Promega)[6],[15]. Luminescence was measured on an Envision 2104 plate reader (PerkinElmer) and Fluostar Omega Reader (BMG Labtech) and data was analyzed using GraphPad PRISM v8. Synergy assessments were performed using CellTiter-Glo (Promega) with the following modifications to the protocol described in the ref. [34]. In brief, EWS502 cells were plated at 1000 cells per well in 50 µL of appropriate media in 384-well white culture plates (Corning) allowed to adhere overnight, and 100 nL of compounds were added using a Janus Workstation pin tool (PerkinElmer) for 72 h. Cell viability was measured by addition of 10 µL of CellTiter-glo (Promega), followed by incubation for 15 minutes at room temperature. Luminescence was measured on an Envision 2104 plate reader (PerkinElmer) and data was analyzed using GraphPad PRISM v8.

[2] = system: PATU-8902 FKBP12^F36V-KRAS^G12V; KRAS^-/- clone; experiment: Antiproliferation, PATU-8902 FKBP12F36V-KRASG12V; KRAS-/- clone, 3D-spheroid (CellTiter-Glo); conditions: FKBP12F36V-KRASG12V, KRAS-/-, 3D-spheroid, replicate values
Description: as §2

[3] = system: PATU-8902 LACZ-FKBP12^F36V clone; experiment: Antiproliferation, PATU-8902 LACZ-FKBP12F36V clone, 2D-monolayer (CellTiter-Glo)
Description: as §2

[4] = system: PATU-8902 FKBP12^F36V-KRAS^G12V; KRAS^-/- clone; experiment: Antiproliferation, PATU-8902 FKBP12F36V-KRASG12V; KRAS-/- clone, 2D-monolayer (CellTiter-Glo)
Description: as §2

[5] = log10[compound] (M) -5.30103, single replicates
[6] = log10[compound] (M) -5.80103, single replicates
[7] = log10[compound] (M) -6.30103, single replicates
[8] = log10[compound] (M) -6.80103, single replicates
[9] = log10[compound] (M) -7.30103, single replicates
[10] = log10[compound] (M) -7.80103, single replicates
[11] = log10[compound] (M) -8.30103, single replicates
[12] = log10[compound] (M) -8.80103, single replicates
[13] = log10[compound] (M) -9.30103, single replicates
[14] = log10[compound] (M) -9.80103, single replicates
[15] = log10[compound] (M) -5.69897, replicate values
[16] = log10[compound] (M) -6.19897, replicate values
[17] = log10[compound] (M) -6.69897, replicate values
[18] = log10[compound] (M) -7.19897, replicate values
[19] = log10[compound] (M) -7.69897, replicate values
[20] = log10[compound] (M) -8.19897, replicate values
[21] = log10[compound] (M) -8.69897, replicate values
[22] = log10[compound] (M) -9.19897, replicate values
[23] = log10[compound] (M) -9.69897, replicate values
[24] = log10[compound] (M) -10.199, replicate values

T1 sequence (P62942 2-108 limits assumed): as the sequence (P62942 2-108 F37V limits assumed) above, with V36F counted along it

For `CC[C@H](C(=O)N1CCCC[C@H]1C(=O)O[C@H](CCc1ccc(OC)c(OC)c1)c1ccccc1OCC(=O)NCCCCCCCCNc1ccc2c(c1)C(=O)N(C1CCC(=O)NC1=O)C2=O)c1cc(OC)c(OC)c(OC)c1` (stereo partly drawn) [dTAG-47], the “DMSO-normalized ratio of Nluc/Fluc signal” value (FKBP12^WT-Nluc; [5]) was 84.1355 and 61.3325 and 70.7772 and 69.8836, the “DMSO-normalized ratio of Nluc/Fluc signal” value (FKBP12^WT-Nluc; [6]) was 93.0264 and 83.3041 and 88.6237 and 105.071 and the “DMSO-normalized ratio of Nluc/Fluc signal” value (FKBP12^WT-Nluc; [7]) was 94.1663 and 90.3102 and 81.5579 and 90.5666. For the same molecule, the “DMSO-normalized ratio of Nluc/Fluc signal” value (FKBP12^WT-Nluc; [8]) was 110.721 and 121.213 and 82.3107 and 91.0391, the “DMSO-normalized ratio of Nluc/Fluc signal” value (FKBP12^WT-Nluc; [9]) was 107.713 and 93.6392 and 128.788 and 92.5578 and the “DMSO-normalized ratio of Nluc/Fluc signal” value (FKBP12^WT-Nluc; [10]) was 103.034 and 105.226 and 82.6165 and 80.9641. The “DMSO-normalized ratio of Nluc/Fluc signal” value (FKBP12^WT-Nluc; [11]) was 109.495 and 103.137 and 100.817 and 113.935, the “DMSO-normalized ratio of Nluc/Fluc signal” value (FKBP12^WT-Nluc; [12]) was 108.489 and 81.746 and 104.598 and 105.548 and the “DMSO-normalized ratio of Nluc/Fluc signal” value (FKBP12^WT-Nluc; [13]) was 150.295 and 133.521 and 111.306 and 119.516. The “DMSO-normalized ratio of Nluc/Fluc signal” value (FKBP12^WT-Nluc; [14]) was 91.0985 and 100.837 and 94.8437 and 78.0176, the “DMSO-normalized ratio of Nluc/Fluc signal” value (FKBP12^F36V-Nluc; [5]) was 9.718 and 7.82 and 6.838 and 6.452 and the “DMSO-normalized ratio of Nluc/Fluc signal” value (FKBP12^F36V-Nluc; [6]) was 7.4356 and 7.1545 and 9.246 and 9.013. The “DMSO-normalized ratio of Nluc/Fluc signal” value (FKBP12^F36V-Nluc; [7]) was 8.136 and 6.155 and 6.261 and 6.581, the “DMSO-normalized ratio of Nluc/Fluc signal” value (FKBP12^F36V-Nluc; [8]) was 5.707 and 7.548 and 7.612 and 6.01 and the “DMSO-normalized ratio of Nluc/Fluc signal” value (FKBP12^F36V-Nluc; [9]) was 6.03 and 9.875 and 9.62 and 12.7928. The “DMSO-normalized ratio of Nluc/Fluc signal” value (FKBP12^F36V-Nluc; [10]) was 18.7955 and 27.4949 and 18.2618 and 15.8294, the “DMSO-normalized ratio of Nluc/Fluc signal” value (FKBP12^F36V-Nluc; [11]) was 42.6816 and 38.7415 and 32.3273 and 32.9688 and the “DMSO-normalized ratio of Nluc/Fluc signal” value (FKBP12^F36V-Nluc; [12]) was 36.5732 and 37.1776 and 61.6483 and 62.7104. The “DMSO-normalized ratio of Nluc/Fluc signal” value (FKBP12^F36V-Nluc; [13]) was 80.6958 and 88.3567 and 73.7011 and 76.297, the “DMSO-normalized ratio of Nluc/Fluc signal” value (FKBP12^F36V-Nluc; [14]) was 75.9613 and 95.4034 and 80.0547 and 73.0727 and the DMSO-normalized antiproliferation [1, 15] was 89.4983 and 102.295 and 92.5832 and 113.039. For the same molecule, the DMSO-normalized antiproliferation [1, 16] was 114.787 and 91.3098 and 99.5825 and 107.277, the DMSO-normalized antiproliferation [1, 17] was 113.465 and 134.808 and 116.567 and 121.226 and the DMSO-normalized antiproliferation [1, 18] was 129.284 and 117.496 and 141.381 and 115.953. The DMSO-normalized antiproliferation [1, 19] was 103.38 and 130.979 and 121.849 and 101.748, the DMSO-normalized antiproliferation [1, 20] was 127.652 and 127.302 and 105.649 and 114.859 and the DMSO-normalized antiproliferation [1, 21] was 124.033 and 144.628 and 127.266 and 105.313. The DMSO-normalized antiproliferation [1, 22] was 110.895 and 108.017 and 114.025 and 143, the DMSO-normalized antiproliferation [1, 23] was 107.098 and 111.016 and 108.066 and 105.932 and the DMSO-normalized antiproliferation [1, 24] was 102.188 and 109.313 and 104.448 and 106.317. The DMSO-normalized antiproliferation ([2]; log10[compound] (M) -5.69897) was 10.0402 and 10.6917 and 15.8593 and 10.4467, the DMSO-normalized antiproliferation ([2]; log10[compound] (M) -6.19897) was 11.3488 and 8.236 and 4.984 and 9.032 and the DMSO-normalized antiproliferation ([2]; log10[compound] (M) -6.69897) was 14.7066 and 10.4355 and 16.0487 and 8.1023. The DMSO-normalized antiproliferation ([2]; log10[compound] (M) -7.19897) was 11.6773 and 15.954 and 8.269 and 8.1914, the DMSO-normalized antiproliferation ([2]; log10[compound] (M) -7.69897) was 15.915 and 11.6328 and 15.6143 and 14.7735 and the DMSO-normalized antiproliferation ([2]; log10[compound] (M) -8.19897) was 17.2515 and 18.6047 and 14.0328 and 13.4092. The DMSO-normalized antiproliferation ([2]; log10[compound] (M) -8.69897) was 38.6293 and 28.3831 and 27.3251 and 20.0636, the DMSO-normalized antiproliferation ([2]; log10[compound] (M) -9.19897) was 80.9673 and 68.7721 and 60.1519 and 83.6347 and the DMSO-normalized antiproliferation ([2]; log10[compound] (M) -9.69897) was 92.188 and 73.717 and 97.9125 and 91.7258. The DMSO-normalized antiproliferation ([2]; log10[compound] (M) -10.199) was 111.244 and 86.8032 and 100.63 and 85.0157, the DMSO-normalized antiproliferation [3, 15] was 66.3552 and 78.983 and 129.177 and 83.2821 and the DMSO-normalized antiproliferation [3, 16] was 96.6043 and 136.336 and 78.4431 and 113.952. For the same molecule, the DMSO-normalized antiproliferation [3, 17] was 106.502 and 122.166 and 122.162 and 152.939, the DMSO-normalized antiproliferation [3, 18] was 97.4699 and 137.606 and 129.786 and 96.3913 and the DMSO-normalized antiproliferation [3, 19] was 105.363 and 127.754 and 134.499 and 162.317. The DMSO-normalized antiproliferation [3, 20] was 108.061 and 166.691 and 180.246 and 124.553, the DMSO-normalized antiproliferation [3, 21] was 122.542 and 158.966 and 101.253 and 156.902 and the DMSO-normalized antiproliferation [3, 22] was 124.955 and 178.332 and 114.428 and 108.403. For the same molecule, the DMSO-normalized antiproliferation [3, 23] was 90.3511 and 110.898 and 123.983 and 115.732, the DMSO-normalized antiproliferation [3, 24] was 132.189 and 174.913 and 122.829 and 145.695 and the DMSO-normalized antiproliferation [4, 15] was 6.913 and 6.748 and 7.162 and 6.575. For the same molecule, the DMSO-normalized antiproliferation [4, 16] was 6.887 and 6.816 and 9.161 and 7.924, the DMSO-normalized antiproliferation [4, 17] was 8.541 and 7.72 and 7.186 and 7.798 and the DMSO-normalized antiproliferation [4, 18] was 7.406 and 10.8399 and 10.8629 and 7.675. The DMSO-normalized antiproliferation [4, 19] was 12.7188 and 13.025 and 10.8965 and 13.2658, the DMSO-normalized antiproliferation [4, 20] was 32.6374 and 45.5784 and 27.329 and 36.3182 and the DMSO-normalized antiproliferation [4, 21] was 78.991 and 62.9303 and 95.6226 and 83.1029. For the same molecule, the DMSO-normalized antiproliferation [4, 22] was 131.499 and 101.289 and 106.245 and 113.716, the DMSO-normalized antiproliferation [4, 23] was 70.9753 and 109.585 and 109.74 and 110.516 and the DMSO-normalized antiproliferation [4, 24] was 108.82 and 120.301 and 99.0114 and 87.8166.

Reference: PMC7501296, “Rapid and direct control of target protein levels with VHL-recruiting dTAG molecules” (Nature Communications, 2020)
